Assay results as given in PubChem BioAssay AID248 (DTP/NCI, 2004).
Inconclusive results and toxic doses are left out. No stated cut-off is given here; in the data, active means T/C of 150% or more; inactive means T/C below 125%.

Test system: L1210 leukemia ip in BDF1 mice, survival T/C
Test: NCI In Vivo Anticancer Drug Screen. Data for tumor model L1210 Leukemia (intraperitoneal) in B6D2F1 (BDF1) mice
Settings: endpoint: mean survival time, higher = longer survival
Outline: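 Read-out is survival time, reported as the treated-group measurement over the vehicle-control measurement.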

[1] = dose: 50.0 mg/kg/injection, schedule: Q01DX001 (ip), vehicle: saline
[2] = dose: 100.0 mg/kg/injection, schedule: Q01DX001 (ip), vehicle: saline
[3] = dose: 200.0 mg/kg/injection, schedule: Q01DX001 (ip), vehicle: saline
[4] = dose: 400.0 mg/kg/injection, schedule: Q01DX001 (ip), vehicle: saline

Measured: T/C

COC(c1ccccc1)(c1ccccc1)c1ccccc1
inactive: [1] 91 % of control | [2] 103 % of control | [3] 101 % of control | [4] 95 % of control

O=C1c2ccccc2C(=O)C2C1C(c1ccccc1)N(c1ccccc1)C2c1ccccc1 (centres undefined)
inactive: [1] 94 % of control | [2] 105 % of control | [3] 94 % of control | [4] 103 % of control

COc1ccc(OC)c(-n2cccc2)c1
inactive: dose: 100.0 mg/kg/injection, schedule: Q04DX002 (ip), vehicle: saline with Tween-80 87 % of control | dose: 200.0 mg/kg/injection, schedule: Q04DX002 (ip), vehicle: saline with Tween-80 103 % of control | dose: 400.0 mg/kg/injection, schedule: Q04DX002 (ip), vehicle: saline with Tween-80 94 % of control

Cc1cc(C)c(S(=O)(=O)c2ccc(F)cc2)c(C)c1
inactive: dose: 100.0 mg/kg/injection, schedule: Q01DX009 (ip), vehicle: saline with Tween-80 98 % of control | dose: 200.0 mg/kg/injection, schedule: Q01DX009 (ip), vehicle: saline with Tween-80 98 % of control | dose: 400.0 mg/kg/injection, schedule: Q01DX009 (ip), vehicle: saline with Tween-80 101 % of control
